Test results: US20120195840A1, “PERSONAL CARE COMPOSITION” (priority 2009, published 2012)

Molecular target: T1, human tyrosinase enzyme (Homo sapiens, UniProt P14679)
T1 sequence (P14679 19-529): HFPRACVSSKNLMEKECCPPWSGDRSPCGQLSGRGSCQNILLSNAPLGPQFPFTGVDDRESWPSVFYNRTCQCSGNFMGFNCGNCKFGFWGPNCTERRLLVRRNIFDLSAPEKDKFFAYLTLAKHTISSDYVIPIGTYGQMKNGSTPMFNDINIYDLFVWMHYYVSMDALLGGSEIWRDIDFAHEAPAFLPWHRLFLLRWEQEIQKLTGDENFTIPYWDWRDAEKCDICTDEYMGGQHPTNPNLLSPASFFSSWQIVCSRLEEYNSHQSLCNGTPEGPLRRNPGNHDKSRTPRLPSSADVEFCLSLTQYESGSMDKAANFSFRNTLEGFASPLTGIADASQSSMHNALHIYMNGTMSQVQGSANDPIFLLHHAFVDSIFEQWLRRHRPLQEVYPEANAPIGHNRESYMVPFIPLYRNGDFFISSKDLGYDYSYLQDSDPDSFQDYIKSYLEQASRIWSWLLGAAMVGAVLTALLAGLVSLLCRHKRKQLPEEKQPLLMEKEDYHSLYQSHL
Assay: human tyrosinase inhibition (procedure as for mushroom tyrosinase)
Format: biochemical
Conditions: sample at 7.5 ppm
Experimental: An indication of the efficacy of skin lightening was determined using an in-vitro tyrosinanse inhibition assay using mushroom tyrosinase. The assay comprised measuring O-diphenolase activities of mushroom tyrosinase with L-DOPA as substrate. This was determined spectrophotometrically by measuring the rate of dopachrome formation at 450 nm (ε=3700 M−1 cm−1). Inhibition studies were done by measuring the dopachrome formation in the presence of various extracts of plant material. The experiment was conducted using the following procedure:
The following stock solutions were prepared. 0.1 M phosphate buffer (KH2PO4, pH=6.5); 3.5 mM L-DOPA in phosphate buffer; 1 mg/ml mushroom tyrosinase enzyme (100 kU) in phosphate buffer. To the KH2PO4 buffer (q.s. to 200 μL) in a 96 well plate having flat bottom was added the desired sample (about 6 μl) followed by 8 μL of mushroom tyrosinase enzyme. This was left at room temperature in the dark for 15 min to enable incubation. Then L-DOPA (57 μL, […]) was added to the resultant solution and the progress of dopachrome formation was observed by measuring the absorbance at 450 nm (A450) on a Tecan spectrophotometer. Percent inhibition was calculated using (Control: without inhibitor) […]

% human tyrosinase inhibition: 40%
SMILES: CCc1ccc(O)cc1O [Example 5, ethyl resorcinol]
